In ChEMBL document CHEMBL2396653, “Synthesis and antimycobacterial evaluation of N-substituted 5-chloropyrazine-2-carboxamides” (Bioorg Med Chem Lett, 2013):
Converted amounts (≈) assume the structure as drawn. The source made the active and inactive calls. The rule behind the calls is not given here.

Experiments:
Mycobacterium avium [1] = assay: Antimycobacterial activity against Mycobacterium avium CNCTC My 152/73 assessed as growth inhibition after 14 days by microdilution method; type: functional; conditions: CNCTC My 152/73, 336 h
Mycobacterium kansasii = assay: Antimycobacterial activity against Mycobacterium kansasii CNCTC My 235/80 assessed as growth inhibition after 14 days by microdilution method; type: functional; conditions: CNCTC My 235/80, 336 h
[2] = system: Mycobacterium tuberculosis; assay: Antimycobacterial activity against Mycobacterium tuberculosis H37Rv assessed as growth inhibition after 14 days by microdilution method; type: functional; conditions: 336 h
Mycobacterium avium [3] = assay: Antimycobacterial activity against Mycobacterium avium CNCTC My 80/72 assessed as growth inhibition after 14 days by microdilution method; type: functional; conditions: CNCTC My 80/72, 336 h
Escherichia coli = assay: Antibacterial activity against Escherichia coli CCM 4517 assessed as growth inhibition after 24 to 48 hrs by microbroth dilution method; type: functional, organism-based
Staphylococcus aureus [4] = assay: Antibacterial activity against methicillin-resistant Staphylococcus aureus H 5996/08 clinical isolate assessed as growth inhibition after 24 to 48 hrs by microbroth dilution method; type: functional, organism-based
Pichia kudriavzevii = assay: Antifungal activity against Candida krusei E28 assessed as growth inhibition after 24 to 48 hrs by microbroth dilution method; type: functional, organism-based
Klebsiella pneumoniae [5] = assay: Antibacterial activity against Klebsiella pneumoniae D 11750/08 clinical isolate assessed as growth inhibition after 24 to 48 hrs by microbroth dilution method; type: functional, organism-based
[6] = Stability of the compound at pH 7; type: physicochemical; conditions: buffer
Staphylococcus aureus [7] = assay: Antibacterial activity against Staphylococcus aureus CCM 4516/08 assessed as growth inhibition after 24 to 48 hrs by microbroth dilution method; type: functional, organism-based
Aspergillus fumigatus = assay: Antifungal activity against Aspergillus fumigatus 231 assessed as growth inhibition after 24 to 48 hrs by microbroth dilution method; type: functional, organism-based
Nakaseomyces glabratus = assay: Antifungal activity against Candida glabrata 20/I assessed as growth inhibition after 24 to 48 hrs by microbroth dilution method; type: functional, organism-based
Lichtheimia corymbifera = assay: Antifungal activity against Absidia corymbifera 272 assessed as growth inhibition after 24 to 48 hrs by microbroth dilution method; type: functional, organism-based
Enterococcus = assay: Antibacterial activity against Enterococcus sp. J 14365/08 clinical isolate assessed as growth inhibition after 24 to 48 hrs by microbroth dilution method; type: functional, organism-based
[8] = system: Staphylococcus epidermidis; assay: Antibacterial activity against Staphylococcus epidermidis H 6966/08 clinical isolate assessed as growth inhibition after 24 to 48 hrs by microbroth dilution method; type: functional, organism-based
Candida albicans = assay: Antifungal activity against Candida albicans ATCC 44859 assessed as growth inhibition after 24 to 48 hrs by microbroth dilution method; type: functional, organism-based
Candida tropicalis = assay: Antifungal activity against Candida tropicalis 156 assessed as growth inhibition after 24 to 48 hrs by microbroth dilution method; type: functional, organism-based
Klebsiella pneumoniae [9] = assay: Antibacterial activity against ESBL-positive Klebsiella pneumoniae J 14368/08 clinical isolate assessed as growth inhibition after 24 to 48 hrs by microbroth dilution method; type: functional, organism-based
[10] = Lipophilicity, log K of the compound by HPLC analysis; type: physicochemical
Trichosporon asahii = assay: Antifungal activity against Trichosporon asahii 1188 assessed as growth inhibition after 24 to 48 hrs by microbroth dilution method; type: functional, organism-based
Pseudomonas aeruginosa = assay: Antibacterial activity against Pseudomonas aeruginosa CCM 1961 assessed as growth inhibition after 24 to 48 hrs by microbroth dilution method; type: functional, organism-based
[11] = system: Trichophyton mentagrophytes; assay: Antifungal activity against Trichophyton mentagrophytes 445 assessed as growth inhibition after 72 to 120 hrs by microbroth dilution method; type: functional, organism-based

Row | Compound | MIC (Mycobacterium avium [1]) | MIC (Mycobacterium kansasii) | MIC [2] | MIC (Mycobacterium avium [3]) | growth inhibition (GI) (Escherichia coli) | growth inhibition (GI) (Staphylococcus aureus [4]) | growth inhibition (GI) (Pichia kudriavzevii) | growth inhibition (GI) (Klebsiella pneumoniae [5]) | Stability [6] | growth inhibition (GI) (Staphylococcus aureus [7]) | growth inhibition (GI) (Aspergillus fumigatus) | growth inhibition (GI) (Nakaseomyces glabratus) | growth inhibition (GI) (Lichtheimia corymbifera) | growth inhibition (GI) (Enterococcus) | growth inhibition (GI) [8] | growth inhibition (GI) (Candida albicans) | growth inhibition (GI) (Candida tropicalis) | growth inhibition (GI) (Klebsiella pneumoniae [9]) | growth inhibition (GI) (Trichosporon asahii) | growth inhibition (GI) [11] | further results
1 | NNC(=O)c1ccncc1 [ISONIAZID] | 6.25 µg/mL (≈ 45.6 µM) | 12.5 µg/mL (≈ 91.1 µM) | 1.56 µg/mL (≈ 11.4 µM) | 25 µg/mL (≈ 182 µM) |  |  |  |  |  |  |  |  |  |  |  |  |  |  |  |  | 
2 | COc1ccc(NC(=O)c2cnc(Cl)cn2)c(OC)c1 | > 100 µg/mL | > 100 µg/mL | > 100 µg/mL | > 100 µg/mL | inactive | inactive | inactive | inactive | Stable | inactive | inactive | inactive | inactive | inactive | inactive | inactive | inactive | inactive | inactive | inactive | log K [10]: 0.5791; growth inhibition (GI) (Pseudomonas aeruginosa): inactive
3 | Cc1ccccc1CNC(=O)c1cnc(Cl)cn1 | > 100 µg/mL | 25 µg/mL (≈ 95.5 µM) | 50 µg/mL (≈ 191 µM) | > 100 µg/mL | inactive | inactive | inactive | inactive | Stable | inactive | inactive | inactive | inactive | inactive | inactive | inactive | inactive | inactive | inactive | inactive | log K [10]: 0.3947; growth inhibition (GI) (Pseudomonas aeruginosa): inactive
4 | O=C(Nc1cccc(Cl)c1)c1cnc(Cl)cn1 | 25 µg/mL (≈ 93.2 µM) | 25 µg/mL (≈ 93.2 µM) | 3.13 µg/mL (≈ 11.7 µM) | 25 µg/mL (≈ 93.2 µM) | inactive | inactive | inactive | inactive | Stable | inactive | inactive | inactive | inactive | inactive | inactive | inactive | inactive | inactive | inactive | inactive | log K [10]: 0.5873; growth inhibition (GI) (Pseudomonas aeruginosa): inactive
5 | OC(Cn1cncn1)(Cn1cncn1)c1ccc(F)cc1F |  |  |  |  |  |  | Active |  |  |  | Active | Active | Active |  |  | Active | Active |  | Active | Active | 
6 | NC(=O)c1cnccn1 [PYRAZINAMIDE] | > 100 µg/mL | > 100 µg/mL | 12.5 µg/mL (≈ 102 µM) | > 100 µg/mL |  |  |  |  |  |  |  |  |  |  |  |  |  |  |  |  | 
7 | COc1ccc(CNC(=O)c2cnc(Cl)cn2)c(OC)c1 | > 100 µg/mL | > 100 µg/mL | > 100 µg/mL | > 100 µg/mL | inactive | inactive | inactive | inactive | Stable | inactive | inactive | inactive | inactive | inactive | inactive | inactive | inactive | inactive | inactive | inactive | log K [10]: 0.2266; growth inhibition (GI) (Pseudomonas aeruginosa): inactive
8 | O=C(NCc1ccccc1C(F)(F)F)c1cnc(Cl)cn1 | > 100 µg/mL | 100 µg/mL (≈ 317 µM) | 25 µg/mL (≈ 79.2 µM) | > 100 µg/mL | inactive | inactive | inactive | inactive | Stable | inactive | inactive | inactive | inactive | inactive | inactive | inactive | inactive | inactive | inactive | inactive | log K [10]: 0.4851; growth inhibition (GI) (Pseudomonas aeruginosa): inactive
9 | O=C(NCc1ccccc1Cl)c1cnc(Cl)cn1 | > 100 µg/mL | 6.25 µg/mL (≈ 22.2 µM) | 25 µg/mL (≈ 88.6 µM) | > 100 µg/mL | inactive | inactive | inactive | inactive | Stable | inactive | inactive | inactive | inactive | inactive | inactive | inactive | inactive | inactive | inactive | inactive | log K [10]: 0.4168; growth inhibition (GI) (Pseudomonas aeruginosa): inactive
10 | O=C(NCc1cccc([N+](=O)[O-])c1)c1cnc(Cl)cn1 | > 100 µg/mL | 12.5 µg/mL (≈ 42.7 µM) | > 100 µg/mL | > 100 µg/mL | inactive | inactive | inactive | inactive | Stable | inactive | inactive | inactive | inactive | inactive | inactive | inactive | inactive | inactive | inactive | inactive | log K [10]: 0.1189; growth inhibition (GI) (Pseudomonas aeruginosa): inactive
11 | O=C(Nc1cccc([N+](=O)[O-])c1)c1cnc(Cl)cn1 | > 100 µg/mL |  | 3.13 µg/mL (≈ 11.2 µM) | > 100 µg/mL | inactive | inactive | inactive | inactive | Stable | inactive | inactive | inactive | inactive | inactive | inactive | inactive | inactive | inactive | inactive | inactive | log K [10]: 0.3443; growth inhibition (GI) (Pseudomonas aeruginosa): inactive
12 | O=C(Nc1ccccc1Cl)c1cnc(Cl)cn1 | > 100 µg/mL |  | 0.78 µg/mL (≈ 2.91 µM) | > 100 µg/mL | inactive | inactive | inactive | inactive | Stable | inactive | inactive | inactive | inactive | inactive | inactive | inactive | inactive | inactive | inactive | inactive | log K [10]: 0.8193; growth inhibition (GI) (Pseudomonas aeruginosa): inactive
